Measurements reported in patent US7968557B2, “Substituted pyrrolo[2,3-2]pyrimidines as protein kinase inhibitors” (Novartis AG, priority 2004, dated 2011).
pIC50: −log10 of the molar value. Like-named read-outs stand apart in the source and are kept apart here.

Assays:
Type in all cases: cell-based
[1] = target: T1, FLT3-ITD (Homo sapiens, UniProt P36888, DUP592-605); assay: Flt-3 inhibition, proliferation of Ba/F3-Flt3-ITD cells
T1 construct: expressed in transfected cells; host or cells: murine Ba/F3 cells, retroviral infection
T1 sequence (P36888 with tags, fused parts or gaps DUP592-605): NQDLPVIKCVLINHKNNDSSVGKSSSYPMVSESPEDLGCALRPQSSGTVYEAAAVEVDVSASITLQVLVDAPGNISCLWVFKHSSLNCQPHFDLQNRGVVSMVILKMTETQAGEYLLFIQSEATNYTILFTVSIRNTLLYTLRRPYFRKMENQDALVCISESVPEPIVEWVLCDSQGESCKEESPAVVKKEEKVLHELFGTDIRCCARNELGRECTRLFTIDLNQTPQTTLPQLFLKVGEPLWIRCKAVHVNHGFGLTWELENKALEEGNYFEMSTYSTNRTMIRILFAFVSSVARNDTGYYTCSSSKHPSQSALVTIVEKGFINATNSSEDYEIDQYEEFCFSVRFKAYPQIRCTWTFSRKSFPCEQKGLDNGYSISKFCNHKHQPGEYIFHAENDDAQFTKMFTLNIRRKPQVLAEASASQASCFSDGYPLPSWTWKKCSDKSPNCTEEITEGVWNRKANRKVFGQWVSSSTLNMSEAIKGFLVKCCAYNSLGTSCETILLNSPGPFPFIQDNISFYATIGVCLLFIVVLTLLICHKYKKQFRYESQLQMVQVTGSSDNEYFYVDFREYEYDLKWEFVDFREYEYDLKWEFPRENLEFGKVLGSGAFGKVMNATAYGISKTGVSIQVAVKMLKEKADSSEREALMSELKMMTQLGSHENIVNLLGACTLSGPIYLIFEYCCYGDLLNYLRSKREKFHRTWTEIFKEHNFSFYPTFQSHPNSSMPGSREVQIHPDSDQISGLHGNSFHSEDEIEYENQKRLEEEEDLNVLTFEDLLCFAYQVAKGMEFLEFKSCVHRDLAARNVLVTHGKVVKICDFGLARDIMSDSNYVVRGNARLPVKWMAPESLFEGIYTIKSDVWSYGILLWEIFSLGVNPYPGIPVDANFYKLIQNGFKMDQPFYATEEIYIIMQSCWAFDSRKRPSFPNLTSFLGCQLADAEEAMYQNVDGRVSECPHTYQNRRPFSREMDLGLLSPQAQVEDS
Description: Compounds that have differential activity (more than or equal to 10 fold difference in sensitivity between Flt3+cell lines and Flt3− cell lines are selected for further study.
The cell lines used for the initial screening are sub-lines of Ba/F3 cells that are engineered to over-express mutant or wild-type (non-mutated) Flt3 following infection with a retrovirus expressing appropriate Flt3 cDNAs. The parent cell line, Ba/F3 is dependent on interleukin-3 for proliferation, and when deprived of IL-3, the cells rapidly cease proliferation and die. The retrovirus expresses Flt3 from the retrovirual LTR and the neo gene from an IRES site. Ba/F3 cells are selected in G418 and analyzed for expression of Flt3 by fluorescence activated cell sorting (FACS). Cell lines with two different Flt3 mutations are used. One mutant expresses a Flt-3 that has a 14 amino acid duplication in the juxtamembrane domain encoded by exon 11, the specific duplication being . . . VDFREYEYDLKWEF . . . […]
Yo-Pro-1 iodide (Molecular Probes) is added to the cells at a final concentration of 2.5 μM in NaCl/Na-citrate buffer. The cells are incubated with Yo-Pro for 10 minutes at room temperature and then read on a fluorimeter for determination of cytotoxicity. Next, the cells are lysed with NP40/EDTA/EGTA buffer, incubated at room temperature for 90 minutes and read for the determination of proliferation. […]

[2] = target: FGFR3 (Homo sapiens, UniProt P22607); assay: IC50 for FGFR3 (method not described)
Chain of FGFR3 (P22607 23-806, species assumed): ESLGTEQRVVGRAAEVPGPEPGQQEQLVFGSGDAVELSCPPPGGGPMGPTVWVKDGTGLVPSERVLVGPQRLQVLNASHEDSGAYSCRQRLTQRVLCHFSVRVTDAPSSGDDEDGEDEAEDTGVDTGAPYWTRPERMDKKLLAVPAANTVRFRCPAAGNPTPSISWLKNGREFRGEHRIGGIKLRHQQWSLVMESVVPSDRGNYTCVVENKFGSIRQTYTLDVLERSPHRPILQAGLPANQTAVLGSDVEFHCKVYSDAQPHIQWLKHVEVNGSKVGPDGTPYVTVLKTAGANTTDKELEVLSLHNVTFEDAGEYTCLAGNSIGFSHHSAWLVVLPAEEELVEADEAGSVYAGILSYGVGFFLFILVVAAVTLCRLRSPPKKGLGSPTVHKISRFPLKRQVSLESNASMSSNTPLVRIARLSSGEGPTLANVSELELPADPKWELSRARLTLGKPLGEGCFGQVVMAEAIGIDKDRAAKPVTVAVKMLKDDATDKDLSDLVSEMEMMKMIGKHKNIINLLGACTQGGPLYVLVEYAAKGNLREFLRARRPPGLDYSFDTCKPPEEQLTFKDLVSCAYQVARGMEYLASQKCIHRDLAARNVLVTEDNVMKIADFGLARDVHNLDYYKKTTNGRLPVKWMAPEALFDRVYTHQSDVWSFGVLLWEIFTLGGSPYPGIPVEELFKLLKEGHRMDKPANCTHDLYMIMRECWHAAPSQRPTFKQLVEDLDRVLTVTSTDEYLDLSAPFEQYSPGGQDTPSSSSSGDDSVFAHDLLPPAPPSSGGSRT

[3] = target: JAK2 (Homo sapiens, UniProt O60674); assay: IC50 for JAK2 (method not described)
Chain of JAK2 (O60674 whole entry, species assumed): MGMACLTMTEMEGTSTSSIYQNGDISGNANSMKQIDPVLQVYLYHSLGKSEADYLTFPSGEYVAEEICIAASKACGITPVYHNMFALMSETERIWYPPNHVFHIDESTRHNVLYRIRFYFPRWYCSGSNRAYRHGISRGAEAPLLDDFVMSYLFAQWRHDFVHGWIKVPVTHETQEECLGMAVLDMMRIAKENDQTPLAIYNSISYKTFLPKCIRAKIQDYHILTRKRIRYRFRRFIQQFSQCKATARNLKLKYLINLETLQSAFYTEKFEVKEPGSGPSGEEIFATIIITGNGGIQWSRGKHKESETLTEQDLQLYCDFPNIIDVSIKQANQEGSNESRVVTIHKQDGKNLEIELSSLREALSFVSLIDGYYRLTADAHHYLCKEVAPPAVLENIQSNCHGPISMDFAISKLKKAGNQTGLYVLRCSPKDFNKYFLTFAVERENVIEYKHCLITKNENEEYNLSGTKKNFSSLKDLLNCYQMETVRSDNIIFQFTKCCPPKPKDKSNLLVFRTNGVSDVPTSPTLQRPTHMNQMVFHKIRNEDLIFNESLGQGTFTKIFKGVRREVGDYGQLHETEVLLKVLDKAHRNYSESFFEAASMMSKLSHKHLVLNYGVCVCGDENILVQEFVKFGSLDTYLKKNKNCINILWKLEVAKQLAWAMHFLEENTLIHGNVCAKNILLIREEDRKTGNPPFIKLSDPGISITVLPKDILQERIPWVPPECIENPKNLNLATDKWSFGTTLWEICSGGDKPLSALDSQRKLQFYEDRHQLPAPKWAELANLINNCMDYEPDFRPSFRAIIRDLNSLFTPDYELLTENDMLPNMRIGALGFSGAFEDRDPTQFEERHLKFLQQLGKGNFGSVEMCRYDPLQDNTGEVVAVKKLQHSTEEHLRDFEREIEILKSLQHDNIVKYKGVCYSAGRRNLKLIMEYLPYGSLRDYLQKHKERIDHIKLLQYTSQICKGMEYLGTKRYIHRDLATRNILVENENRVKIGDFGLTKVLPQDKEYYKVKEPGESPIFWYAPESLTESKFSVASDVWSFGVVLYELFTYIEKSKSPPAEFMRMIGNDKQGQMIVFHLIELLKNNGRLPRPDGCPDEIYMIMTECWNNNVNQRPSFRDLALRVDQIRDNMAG

[4] = target: T2, PDGFR-beta (Homo sapiens, UniProt P09619); assay: IC50 for BaF3/PDGFR-beta (method not described)
T2 construct: expressed in transfected cells; host or cells: BaF3
T2 sequence (P09619 33-1106, species assumed): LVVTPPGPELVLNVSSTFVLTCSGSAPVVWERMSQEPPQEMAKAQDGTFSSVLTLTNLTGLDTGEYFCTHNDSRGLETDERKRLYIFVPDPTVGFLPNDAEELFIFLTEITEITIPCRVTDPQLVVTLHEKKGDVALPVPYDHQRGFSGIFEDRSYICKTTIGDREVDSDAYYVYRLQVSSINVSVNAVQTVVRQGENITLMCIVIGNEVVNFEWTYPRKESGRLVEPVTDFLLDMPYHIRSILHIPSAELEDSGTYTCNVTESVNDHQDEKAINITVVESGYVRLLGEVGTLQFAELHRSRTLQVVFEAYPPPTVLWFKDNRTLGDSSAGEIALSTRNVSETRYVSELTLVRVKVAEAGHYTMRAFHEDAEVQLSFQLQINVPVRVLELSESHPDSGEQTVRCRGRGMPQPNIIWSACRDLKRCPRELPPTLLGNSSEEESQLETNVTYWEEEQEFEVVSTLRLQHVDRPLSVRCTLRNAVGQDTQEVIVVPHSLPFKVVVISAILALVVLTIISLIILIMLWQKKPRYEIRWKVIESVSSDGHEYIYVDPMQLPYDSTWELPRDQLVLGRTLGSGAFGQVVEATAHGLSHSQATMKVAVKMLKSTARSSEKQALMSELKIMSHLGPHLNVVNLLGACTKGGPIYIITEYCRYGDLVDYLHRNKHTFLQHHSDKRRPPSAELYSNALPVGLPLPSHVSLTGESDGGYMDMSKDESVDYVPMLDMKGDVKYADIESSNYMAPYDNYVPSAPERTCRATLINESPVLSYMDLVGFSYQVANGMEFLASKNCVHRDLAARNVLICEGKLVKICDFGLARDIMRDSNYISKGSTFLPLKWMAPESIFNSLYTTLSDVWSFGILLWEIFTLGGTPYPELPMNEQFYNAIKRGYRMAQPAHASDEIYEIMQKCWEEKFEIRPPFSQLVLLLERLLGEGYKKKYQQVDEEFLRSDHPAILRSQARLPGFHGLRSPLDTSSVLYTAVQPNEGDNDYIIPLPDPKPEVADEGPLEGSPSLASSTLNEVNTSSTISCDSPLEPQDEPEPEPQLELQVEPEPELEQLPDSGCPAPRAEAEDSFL

[5] = target: Tel-TRKC (Homo sapiens, UniProt Q16288); assay: IC50 for Tel-TRKC (method not described)
Chain of Tel-TRKC (Q16288 530-839): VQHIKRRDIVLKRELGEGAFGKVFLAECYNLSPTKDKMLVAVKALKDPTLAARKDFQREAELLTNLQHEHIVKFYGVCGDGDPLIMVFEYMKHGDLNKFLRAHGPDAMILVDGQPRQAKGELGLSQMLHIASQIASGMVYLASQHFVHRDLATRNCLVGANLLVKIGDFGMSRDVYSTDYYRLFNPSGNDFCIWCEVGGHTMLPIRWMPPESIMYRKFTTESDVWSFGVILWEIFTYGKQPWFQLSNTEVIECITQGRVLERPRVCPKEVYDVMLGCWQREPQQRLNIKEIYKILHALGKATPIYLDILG
Chain of Tel-TRKC (P41212 1-336 partner): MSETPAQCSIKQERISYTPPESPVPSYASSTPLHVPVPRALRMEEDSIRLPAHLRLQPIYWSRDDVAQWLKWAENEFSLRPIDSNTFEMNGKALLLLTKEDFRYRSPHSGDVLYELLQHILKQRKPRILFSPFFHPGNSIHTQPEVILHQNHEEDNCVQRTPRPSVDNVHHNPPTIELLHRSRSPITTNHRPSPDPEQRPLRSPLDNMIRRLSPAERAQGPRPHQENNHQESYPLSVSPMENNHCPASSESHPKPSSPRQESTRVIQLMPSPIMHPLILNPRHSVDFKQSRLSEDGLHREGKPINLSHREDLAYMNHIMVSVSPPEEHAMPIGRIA

[6] = target: T3, BCR-Abl (Homo sapiens, UniProt P00519); assay: Inhibition of cellular BCR-Abl dependent proliferation (32D-p210 cells)
T3 construct: expressed in transfected cells; host or cells: murine 32D hemopoietic progenitor cells (32D-p210); the other entry of the earlier key: BCR (P11274, Breakpoint cluster region protein)
T3 sequence (P00519 229-512 limits assumed): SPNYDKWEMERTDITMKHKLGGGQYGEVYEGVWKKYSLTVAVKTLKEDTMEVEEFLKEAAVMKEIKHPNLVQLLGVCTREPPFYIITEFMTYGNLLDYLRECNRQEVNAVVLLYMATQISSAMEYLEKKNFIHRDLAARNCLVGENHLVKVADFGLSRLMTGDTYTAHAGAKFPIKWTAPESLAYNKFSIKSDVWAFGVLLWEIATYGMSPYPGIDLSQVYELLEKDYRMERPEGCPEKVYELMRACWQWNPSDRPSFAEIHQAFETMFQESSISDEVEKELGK
Protocol: Inhibition of Cellular BCR-Abl Dependent Proliferation (High Throughput Method)
The murine cell line used is the 32D hemopoietic progenitor cell line transformed with BCR-Abl cDNA (32D-p210). These cells are maintained in RPMI/10% fetal calf serum (RPMI/FCS) supplemented with penicillin 50 μg/mL, streptomycin 50 μg/mL and L-glutamine […]. Untransformed 32D cells are similarly maintained with the addition of 15% WEHI conditioned medium as a source of IL3.
50 μl of a 32D or 32D-p210 cells suspension are plated in Greiner 384 well microplates (black) at a density of 5000 cells per well. 50 nl of test compound (1 mM in DMSO stock solution) is added to each well (ST1571 is included as a positive control). The cells are incubated for 72 hours at 37° C., 5% CO2. 10 μl of a 60% Alamar Blue solution (Tek diagnostics) is added to each well and the cells are incubated for an additional 24 hours. The fluorescence intensity (Excitation at 530 nm, Emission at 580 nm) is quantified using the Acquest™ system (Molecular Devices).
Inhibition of Cellular BCR-Abl Dependent Proliferation
32D-p210 cells are plated into 96 well TC plates at a density of 15,000 cells per well. 50 μL of two fold serial dilutions of the test compound (Cmax is 40 μM) are added to each well (ST1571 is included as a positive control). […]

Compound: COc1cc(Nc2ncc3ccn(-c4cccc(CC#N)c4)c3n2)cc(OC)c1OC [example 104, {3-[2-(3,4,5-Trimethoxy-phenylamino)-pyrrolo[2,3-d]pyrimidin-7-yl]-phenyl}-acetonitrile]
- pIC50 [1]: 7.54
- pIC50 [2]: 6.55
- pIC50 [3]: 6.47
- pIC50 ([4]; read-out: IC50 for PDGFR-beta): 7.48
- pIC50 [5]: 6.32

Compound: COc1cc(Nc2ncc3c(n2)N(c2ccccn2)CC3)cc(OC)c1OC [example 61, (7-Pyridin-2-yl-6,7-dihydro-5H-pyrrolo[2,3-d]pyrimidin-2-yl)-(3,4,5-trimethoxy-phenyl)-amine]
- pIC50 [2]: 6.55

Compound: COc1cc(Nc2ncc3ccn(-c4cccc(CCC#N)c4)c3n2)cc(OC)c1OC [example 85, 3-{3-[2-(3,4,5-Trimethoxy-phenylamino)-pyrrolo[2,3-d]pyrimidin-7-yl]-phenyl}-propionitrile]
- pIC50 [1]: 7.80

Compound: COc1ccc(Nc2ncc3ccn(-c4ccnc(Cl)c4)c3n2)c(C)c1 [example 47, [7-(2-Chloro-pyridin-4-yl)-7H-pyrrolo[2,3-d]pyrimidin-2-yl]-(4-methoxy-2-methyl-phenyl)-amine]
- pIC50 [6]: 6.39

Compound: COc1cc(Nc2ncc3ccn(-c4cccc(Cc5nnnn5C)c4)c3n2)cc(OC)c1OC [example 120, {7-[3-(1-Methyl-1H-tetrazol-5-ylmethyl)-phenyl]-7H-pyrrolo[2,3-d]pyrimidin-2-yl}-(3,4,5-trimethoxy-phenyl)-amine]
- pIC50 ([4]; BaF3/PDGFR-beta, read-out: IC50 for BaF3/PDGFR-beta): 7.54
